Laboratory results from patent US9241488B2, “Azole derivative, method for producing azole derivative, and intermediate compound” (KUREHA CORPORATION, priority 2011, dated 2016).
Like-named read-outs stand apart in the source and are kept apart here.

Columns and labels:
[1] = tested on: wheat-brown-rust-causing microorganisms; assay: Controlling effect on wheat brown rust (spray, pot test); format: in vivo, Puccinia recondita; conditions: 1 mg/L sprayed at 1,000 L/ha, wheat NORIN No. 61, 9 to 14 days after inoculation
Procedure: Onto a wheat plant (cultivar: NORIN No. 61) grown to the two-leaf stage with use of a square plastic pot (6 cm×6 cm), a wettable formulation such as Formulation Example 1 which was diluted and suspended in water at a concentration of 1 mg/L was sprayed at a rate of 1,000 L/ha. The sprayed leaves were air-dried, and inoculated with spore suspension of wheat-brown-rust-causing microorganisms (adjusted at 200 spores/vision, […] was added at 60 ppm) by spraying, and kept at 25° C. and a high humidity for 48 hours. Thereafter, the plant was kept in a greenhouse. Nine to fourteen days after inoculation, the wheat brown rust lesion degree was evaluated. The protective value was calculated by the following equation. Protective value (%)=(1-mean lesion degree in sprayed plot/mean lesion degree in unsprayed plot)×100 [table] [table]

[2] = tested on: wheat leaf blight-causing microorganisms; assay: Anti-bacterial effect on wheat leaf blight-causing microorganisms (PDA plate, mycelial growth inhibition); format: cell-based, Septoria tritici; conditions: 1.25 mg/L in PDA plate medium, 25° C., 14 days
Procedure: In Test Examples, an anti-bacterial effect of a compound in accordance with the present invention on the wheat leaf blight-causing microorganisms was tested, and was compared with the anti-bacterial effect of a comparative compound (1).
A dimethyl sulfoxide solution (0.6 ml) containing a compound in accordance with the present invention was added to a PDA medium (potato dextrose agar medium) (60 ml) having about 60° C., and the resultant mixture was mixed thoroughly in a 100-ml conical flask. The mixture was poured into a dish, and was solidified. […]
On the other hand, a subject microorganism previously cultured on a plate medium was cut out with use of a cork borer whose diameter was 4 mm, and the wheat leaf blight-causing microorganism on the plate medium thus cut out was inoculated to the chemical-containing plate medium described above. After such inoculation, the chemical-containing plate medium was incubated at 25° C. for 14 days, and then diameters of its flora were measured. A % mycelial growth inhibition was calculated with use of the formula. R=100(dc−dt)/dc (where R=% mycelial extension inhibition, dc=flora diameter in untreated plate, dt=flora diameter in treated plate)
The results obtained as described above were evaluated on a five-point scale according to the following criteria.
• 5: % Mycerial growth inhibition of 80% or higher • 4: % Mycerial growth inhibition of less than 80 to 60% or higher • 3: % Mycerial growth inhibition of less than 60 to 40% or higher • 2: % Mycerial growth inhibition of less than 40 to 20% or higher • 1: % Mycerial growth inhibition of less than 20%

[3] = tested on: Barley loose smut (Ustilago nuda); assay: Anti-bacterial effect on various microorganisms (plate medium), U.n; format: cell-based
[4] = tested on: Rice bacterial seeding blight (Rhizopus oryzae); assay: Anti-bacterial effect on various microorganisms (plate medium), R.o; format: cell-based
[5] = tested on: Rice bakanae disease (Giberella fujikuroi); assay: Anti-bacterial effect on various microorganisms (plate medium), G.f; format: cell-based
[6] = tested on: Barley leaf blotch (Rhynchosporium secalis); assay: Anti-bacterial effect on various microorganisms (plate medium), R. sec; format: cell-based
[7] = tested on: Alternaria blotch (Alternaria alternata); assay: Anti-bacterial effect on various microorganisms (plate medium), A.m; format: cell-based
[8] = tested on: Wheat pink snow mold (Microdochium nivale); assay: Anti-bacterial effect on various microorganisms (plate medium), M.n; format: cell-based
[9] = tested on: Wheat fusarium blight (Fusarium graminearum); format: cell-based
[10] = tested on: Wheat Septoria nodorum blotch microorganism (Phaeosphaeria nodorum); assay: Anti-bacterial effect on various microorganisms (plate medium), P.n; format: cell-based
[11] = tested on: Wheat eye spot (Pseudocercoporella herpotrichoides); assay: Anti-bacterial effect on various microorganisms (plate medium), P.h; format: cell-based
[12] = tested on: Rice blast (Pyricularia oryzae); format: cell-based
[13] = tested on: Cucumber fusarium wilt (Fusarium oxysporum); assay: Anti-bacterial effect on various microorganisms (plate medium), F.c; format: cell-based
[14] = tested on: Sclerotinia rot (Sclerotinia sclerotiorum); assay: Anti-bacterial effect on various microorganisms (plate medium), S.s; format: cell-based
[15] = tested on: Gray mold (Botritis cinerea); assay: Anti-bacterial effect on various microorganisms (plate medium), B.c; format: cell-based

In the case of `COC[C@]1(CCl)CC[C@@H](Cc2ccccc2)[C@]1(O)Cn1cncn1` (racemic) [Compound I-187, (1RS,2RS,5SR)-5-benzyl-2-chloromethyl-2-methoxymethyl-1H-[1,2,4]triazole-1-ylmethylcyclopentanol], the Protective value [1] is reported as 4 (61 to 80), the Growth inhibition grade [2] is reported as 5 (% Mycerial growth inhibition of 80% or higher) and the “Growth inhibition grade U.n” value ([3]; 1.25 mg/L) is reported as 5 (% Mycerial growth inhibition of 80% or higher). For the same molecule, the “Growth inhibition grade U.n” value ([3]; 5 mg/L) was 5 (% Mycerial growth inhibition of 80% or higher), the “Growth inhibition grade R.o” value ([4]; 1.25 mg/L) was 5 (% Mycerial growth inhibition of 80% or higher) and the “Growth inhibition grade R.o” value ([4]; 5 mg/L) was 5 (% Mycerial growth inhibition of 80% or higher). For the same molecule, the “Growth inhibition grade G.f” value ([5]; 1.25 mg/L) was 5 (% Mycerial growth inhibition of 80% or higher), the “Growth inhibition grade G.f” value ([5]; 5 mg/L) was 5 (% Mycerial growth inhibition of 80% or higher) and the “Growth inhibition grade R. sec” value ([6]; 1.25 mg/L) was 5 (% Mycerial growth inhibition of 80% or higher). For the same molecule, the “Growth inhibition grade R. sec” value ([6]; 5 mg/L) was 5 (% Mycerial growth inhibition of 80% or higher), the “Growth inhibition grade A.m” value ([7]; 1.25 mg/L) was 4 (% Mycerial growth inhibition of less than 80 to 60% or higher) and the “Growth inhibition grade A.m” value ([7]; 5 mg/L) was 5 (% Mycerial growth inhibition of 80% or higher). The “Growth inhibition grade M.n” value ([8]; 1.25 mg/L) was 5 (% Mycerial growth inhibition of 80% or higher), the “Growth inhibition grade M.n” value ([8]; 5 mg/L) was 5 (% Mycerial growth inhibition of 80% or higher) and the “Growth inhibition grade F.g” value ([9]; 1.25 mg/L) was 5 (% Mycerial growth inhibition of 80% or higher). For the same molecule, the “Growth inhibition grade F.g” value ([9]; 5 mg/L) was 5 (% Mycerial growth inhibition of 80% or higher), the “Growth inhibition grade P.n” value ([10]; 1.25 mg/L) was 4 (% Mycerial growth inhibition of less than 80 to 60% or higher) and the “Growth inhibition grade P.n” value ([10]; 5 mg/L) was 5 (% Mycerial growth inhibition of 80% or higher). For the same molecule, the “Growth inhibition grade P.h” value ([11]; 1.25 mg/L) was 5 (% Mycerial growth inhibition of 80% or higher), the “Growth inhibition grade P.h” value ([11]; 5 mg/L) was 5 (% Mycerial growth inhibition of 80% or higher) and the “Growth inhibition grade P.o” value ([12]; 1.25 mg/L) was 5 (% Mycerial growth inhibition of 80% or higher). The “Growth inhibition grade P.o” value ([12]; 5 mg/L) was 5 (% Mycerial growth inhibition of 80% or higher), the “Growth inhibition grade F.c” value ([13]; 1.25 mg/L) was 5 (% Mycerial growth inhibition of 80% or higher) and the “Growth inhibition grade F.c” value ([13]; 5 mg/L) was 5 (% Mycerial growth inhibition of 80% or higher). For the same molecule, the “Growth inhibition grade S.s” value ([14]; 1.25 mg/L) was 5 (% Mycerial growth inhibition of 80% or higher), the “Growth inhibition grade S.s” value ([14]; 5 mg/L) was 5 (% Mycerial growth inhibition of 80% or higher) and the “Growth inhibition grade B.c” value ([15]; 1.25 mg/L) was 5 (% Mycerial growth inhibition of 80% or higher). The “Growth inhibition grade B.c” value ([15]; 5 mg/L) was 5 (% Mycerial growth inhibition of 80% or higher).

With `CCOC[C@]1(CCl)CC[C@@H](Cc2ccccc2)[C@]1(O)Cn1cncn1` (racemic) [Compound I-234, (1RS,2RS,5SR)-5-benzyl-2-chloromethyl-2-ethoxymethyl-1H-[1,2,4]triazole-1-ylmethylcyclopentanol] the Protective value [1] was 4 (61 to 80), the Growth inhibition grade [2] was 5 (% Mycerial growth inhibition of 80% or higher) and the “Growth inhibition grade U.n” value ([3]; 1.25 mg/L) was 5 (% Mycerial growth inhibition of 80% or higher). The “Growth inhibition grade U.n” value ([3]; 5 mg/L) was 5 (% Mycerial growth inhibition of 80% or higher), the “Growth inhibition grade R.o” value ([4]; 1.25 mg/L) was 5 (% Mycerial growth inhibition of 80% or higher) and the “Growth inhibition grade R.o” value ([4]; 5 mg/L) was 5 (% Mycerial growth inhibition of 80% or higher). For the same molecule, the “Growth inhibition grade G.f” value ([5]; 1.25 mg/L) was 5 (% Mycerial growth inhibition of 80% or higher), the “Growth inhibition grade G.f” value ([5]; 5 mg/L) was 5 (% Mycerial growth inhibition of 80% or higher) and the “Growth inhibition grade R. sec” value ([6]; 1.25 mg/L) was 5 (% Mycerial growth inhibition of 80% or higher). For the same molecule, the “Growth inhibition grade R. sec” value ([6]; 5 mg/L) was 5 (% Mycerial growth inhibition of 80% or higher), the “Growth inhibition grade A.m” value ([7]; 1.25 mg/L) was 4 (% Mycerial growth inhibition of less than 80 to 60% or higher) and the “Growth inhibition grade A.m” value ([7]; 5 mg/L) was 5 (% Mycerial growth inhibition of 80% or higher). For the same molecule, the “Growth inhibition grade M.n” value ([8]; 1.25 mg/L) was 5 (% Mycerial growth inhibition of 80% or higher), the “Growth inhibition grade M.n” value ([8]; 5 mg/L) was 5 (% Mycerial growth inhibition of 80% or higher) and the “Growth inhibition grade F.g” value ([9]; 1.25 mg/L) was 5 (% Mycerial growth inhibition of 80% or higher). For the same molecule, the “Growth inhibition grade F.g” value ([9]; 5 mg/L) was 5 (% Mycerial growth inhibition of 80% or higher), the “Growth inhibition grade P.n” value ([10]; 1.25 mg/L) was 5 (% Mycerial growth inhibition of 80% or higher) and the “Growth inhibition grade P.n” value ([10]; 5 mg/L) was 5 (% Mycerial growth inhibition of 80% or higher). The “Growth inhibition grade P.h” value ([11]; 1.25 mg/L) was 4 (% Mycerial growth inhibition of less than 80 to 60% or higher), the “Growth inhibition grade P.h” value ([11]; 5 mg/L) was 5 (% Mycerial growth inhibition of 80% or higher) and the “Growth inhibition grade P.o” value ([12]; 1.25 mg/L) was 5 (% Mycerial growth inhibition of 80% or higher). The “Growth inhibition grade P.o” value ([12]; 5 mg/L) was 5 (% Mycerial growth inhibition of 80% or higher), the “Growth inhibition grade F.c” value ([13]; 1.25 mg/L) was 5 (% Mycerial growth inhibition of 80% or higher) and the “Growth inhibition grade F.c” value ([13]; 5 mg/L) was 5 (% Mycerial growth inhibition of 80% or higher). The “Growth inhibition grade S.s” value ([14]; 1.25 mg/L) was 5 (% Mycerial growth inhibition of 80% or higher), the “Growth inhibition grade S.s” value ([14]; 5 mg/L) was 5 (% Mycerial growth inhibition of 80% or higher) and the “Growth inhibition grade B.c” value ([15]; 1.25 mg/L) was 5 (% Mycerial growth inhibition of 80% or higher). The “Growth inhibition grade B.c” value ([15]; 5 mg/L) was 5 (% Mycerial growth inhibition of 80% or higher).

With `COC[C@]1(CCl)CC[C@H](Cc2ccc(Cl)cc2)[C@]1(O)Cn1cncn1` (racemic) [Compound I-16b, (1RS,2RS,5RS)-5-(4-chlorobenzyl)-2-chloromethyl-2-methoxymethyl-1H-[1,2,4]triazole-1-ylmethylcyclopentanol] the “Growth inhibition grade R.o” value ([4]; 1.25 mg/L) was 5 (% Mycerial growth inhibition of 80% or higher), the “Growth inhibition grade R.o” value ([4]; 5 mg/L) was 5 (% Mycerial growth inhibition of 80% or higher) and the “Growth inhibition grade M.n” value ([8]; 1.25 mg/L) was 3 (% Mycerial growth inhibition of less than 60 to 40% or higher). For the same molecule, the “Growth inhibition grade M.n” value ([8]; 5 mg/L) was 5 (% Mycerial growth inhibition of 80% or higher).
